Experimental data: patent US7030119B1, “Method for treating chronic pain using MEK inhibitors” (Warner-Lambert Company, priority 1999, dated 2006)
Entries after “also recorded” stand apart in the source; their conditions may differ. Counter-ions that a name gives are not always drawn. Like-named read-outs stand apart in the source and are kept apart here.

Legend:
[1] = tested on: CCI-induced static allodynia; experiment: chronic constriction injury (CCI)-induced static allodynia (von Frey hairs) in rats; type: in vivo, rat
Procedure: (§1) Male Sprague Dawley rats (250–300 g), obtained from Charles River, Margate, U.K.) were housed in groups of 3–6. All animals were kept under a 12 h light/dark cycle (lights on at 07 h 00 min) with food and water ad libitum. All experiments were carried out by an observer blind to drug treatments.
Animals were anaesthetised with 2% isoflurane 1:4 O2/N2O mixture maintained during surgery via a nose cone. The sciatic nerve was ligated as previously described by Bennett and Xie, 1988. Animals were placed on a homeothermic blanket for the duration of the procedure. After surgical preparation the common sciatic nerve was exposed at the middle of the thigh by blunt dissection through biceps femoris. Proximal to the sciatic trifurcation, about 7 mm of nerve was freed of adhering tissue and 4 ligatures (4-0 silk) were tied loosely around it with about 1 mm spacing. The incision was closed in layers and the wound treated with topical antibiotics.
(§2) PD 198306 and pregabalin were administered intrathecally in a volume of 10 μl using a 100 μl Hamilton syringe by exposing the spine of the rats under brief isoflurane anaesthesia. Injections were made into the intrathecal space between lumbar region 5–6 with a 10 mm long 27 gauge needle. Penetrations were judged successful if there was a tail flick response. The wound was sealed with an autoclip and rats appeared fully awake within 2–3 min following injection.
(§3) Mechanical hypersensitivity was measured using Semmes-Weinstein von Frey hairs (Stoelting, Ill., U.S.A.). Animals were placed into wire mesh bottom cages allowing access to the underside of their paws. Animals were habituated to this environment prior to the start of the experiment. Mechanical hypersensitivity was tested by touching the plantar surface of the animals right hind paw with von Frey hairs in ascending order of force (0.7, 1.2, 1.5, 2, 3.6, 5.5, 8.5, 11.8, 15.1 and 29 g) for up to 6 sec. Once a withdrawal response was established, the paw was re-tested, starting with the next descending von Frey hair until no response occurred. The highest force of 29 g lifted the paw as well as eliciting a response, thus represented the cut off point. The lowest amount of force required to elicit a response was recorded as the paw withdrawal threshold (PWT) in grams.
(§4) Static allodynia was assessed with von Frey hairs, before (baseline, BL) and 0.5 h, 1 h and 2 h after intrathecal or intraplantar administration of PD 198306 (1–30 μg, i.t.), vehicle (cremophor:ethanol:water, 1:1:8) or pregabalin (10 μg, i.t.). For oral administration experiments, static allodynia was assessed with von Frey hairs, before (baseline, BL) and 1 h after oral administration of PD 198306 (3–30 mg/kg, p.o.), vehicle (cremophor:ethanol:water, 1:1:8) or pregabalin (30 mg/kg, p.o.). Animals were administered again the same compounds on the following day, both in the morning and the afternoon. Static allodynia was assessed before and 1 h after the morning administration. In the afternoon static allodynia was assessed before, 1 h, 2 h and 3 h after administration for streptozocin treated animals. CCI animals were assessed before, 1 h and 2 h after administration
PD 198306 and pregabalin were synthesised at Parke-Davis (Ann Arbor, Mich., USA). PD 198306 was suspended in cremophor:ethanol:water (1:1:8) vehicle. Pregabalin was dissolved in water. Both compounds were administered orally, intrathecally or intraplantar in volumes of 1 ml/kg, 10 μl and 100 μl respectively. Streptozocin (Aldrich, UK) was dissolved in 0.9% w/v NaCl and administered intraperitoneally in a volume of 1 ml/kg.
Data were analysed using a Kruskall-Wallis ANOVA for non-parametric results, followed when significant by Mann-Whitney's t test vs vehicle group.
The animals and methods for developing chronic constriction injury in the rat, injecting test compounds, and evaluation of static allodynia were according to Example 2 above. […]

[2] = tested on: streptozocin-induced static allodynia; experiment: streptozocin-induced static allodynia (von Frey hairs) in diabetic rats; type: in vivo, rat
Procedure: Male Sprague Dawley rats (250–300 g), obtained from Bantin and Kingman, (Hull, U.K.) were housed in groups of 3. All animals were kept under a 12 h light/dark cycle (lights on at 07 h 00 min) with food and water ad libitum. All experiments were carried out by an observer blind to drug treatments.
Diabetes was induced in rats by a single i.p. injection of streptozocin (50 mg/kg) as described previously (Courteix et al., 1993).
as §3
PD 198306 [N-Cyclopropylmethoxy-3,4,5-trifluoro-2-(4-iodo-2-methyl-phenylamino)-benzamide] and Cl-1008 (pregabalin) were synthesized at Parke-Davis (Ann Arbor, Mich., USA). PD 198306 was suspended in cremophor:ethanol:water (1:1:8) vehicle. Pregabalin was dissolved in water. Both compounds were administered orally. Streptozocin (Aldrich, UK) was dissolved in 0.9% w/v NaCl and administered intraperitoneally. Drug administrations were made in a volume of 1 ml/kg.
The static allodynia data were analysed using a Kruskall-Wallis ANOVA for non-parametric results, followed when significant by Mann-Whitney's t test.
Static allodynia was assessed with von Frey hairs, before (baseline, BL) and 1 h after oral administration of PD 198306 (30 mg/kg, p.o.), vehicle (cremophor:ethanol:water, 1:1:8) or pregabalin (30 mg/kg, p.o.) (test). Animals were administered again the same compounds on the following day, both in the morning and the afternoon. Static allodynia was assessed only before and 1 h after the afternoon administration, in order to minimise the habituation of the animals to the testing conditions. Animals treated with pregabalin received water in the morning administration, in order to avoid the potential development of tolerance to the compound with repeated administration.
as §1, §2
as §4, with “Static allodynia was assessed before and 1 h after the morning administration. In the afternoon static allodynia was assessed before, 1 h, 2 h and 3 h after administration for streptozocin treated animals. CCI animals were assessed before, 1 h and 2 h after administration” left out

colon 26 cells = colon 26 cells IC50; type: cell-based; details: Mus musculus
MEK = experiment: binding affinity of MEK inhibitors; details: affinity of the MEK inhibitors of Biological Example 3
[3] = tested on: CCI-induced static allodynia; experiment: chronic constriction injury (CCI)-induced static allodynia (von Frey hairs) in rats; type: in vivo, rat; details: Biological Example 3; intrathecal administration 30 μg
[4] = Biological Example 1, single administration 30 mg/kg p.o., 1 h after administration
[5] = Biological Example 2, single administration p.o. (pregabalin 30 mg/kg, PD 198306 3–30 mg/kg), 1 h after administration
[6] = Biological Example 3, intrathecal administration 30 μg
[7] = intraplantar administration 3 mg/100 μl
[8] = intrathecal administration 1–30 μg

CC(C)C[C@H](CN)CC(=O)O [pregabalin]
effect on CCI-induced static allodynia ([1]; single administration 30 mg/kg p.o., 1 h after administration): significantly blocked | effect on streptozocin-induced static allodynia [2, 4]: significantly blocked | effect on streptozocin-induced static allodynia [2, 5]: significantly blocked

Cc1cc(I)ccc1Nc1c(C(=O)NOCC2CC2)cc2nc[nH]c2c1F (as salt: salt) [PD 254552, 7-fluoro-6-(4-iodo-2-methyl-phenylamino)-1H-benzoimidazole-5-carboxylic acid cyclopropylmethoxy-amide]
melting point: 168 to 172 °C

Cc1cc(I)ccc1Nc1c(C(=O)NOCC2CC2)cc2nc[nH]c2c1F [PD 254552, 7-fluoro-6-(4-iodo-2-methyl-phenylamino)-1H-benzoimidazole-5-carboxylic acid cyclopropylmethoxy-amide]
effect on static allodynia, CCI model [1, 6]: blocked the maintenance of static allodynia | time for which the antiallodynic effect was evident post-injection, CCI model [1, 6]: 30 min | IC50 (colon 26 cells; read-out: colon 26 cells, 1 hour pretreatment, IC50): 20 nM | affinity (MEK): 5 nM

Cc1cc(I)ccc1Nc1c(C(=O)O)cc2nc[nH]c2c1F [PD 205293, 7-fluoro-6-(4-iodo-2-methyl-phenylamino)-1H-benzoimidazole-5-carboxylic acid]
IC50 (colon 26 cells; read-out: colon 26 cells, IC50): > 10000 nM | melting point: 247 to 248 °C (dec.)

O=C(NOCC1CC1)c1ccc(F)c(F)c1Nc1ccc(I)cc1Cl [PD 184352]
magnitude of the antiallodynic effect compared with 100 μg of pregabalin, CCI model [3]: similar | effect on static allodynia, CCI model [1, 6]: blocked the maintenance of static allodynia | time for which the antiallodynic effect was evident post-injection, CCI model [1, 6]: 30 min | affinity (MEK): 2 nM

Cc1cc(I)ccc1Nc1c(C(=O)NOCC2CC2)cc(F)c(F)c1F [PD 198306, N-Cyclopropylmethoxy-3,4,5-trifluoro-2-(4-iodo-2-methyl-phenylamino)-benzamide]
effect on static allodynia, CCI model ([1]; Biological Example 2, intrathecal administration 30 μg): significantly blocked; also recorded: totally blocked | effect on static allodynia, CCI model [1, 7]: had no effect | minimum effective dose (MED), static allodynia, CCI model ([1]; intrathecal administration): 10 µg | effect on static allodynia, CCI model [1, 8]: dose-dependently blocked | effect on CCI-induced static allodynia ([1]; single or multiple administration 3–30 mg/kg p.o.): neither a single or multiple administration of PD 198306 (3–30 mg/kg, p.o) had any effect; also recorded: had no effect | effect on streptozocin-induced static allodynia ([2]; Biological Example 1, 30 mg/kg p.o., 1 h after the third administration (twice more on the following day)): significantly blocked | persistence of the effect on streptozocin-induced static allodynia ([2]; Biological Example 1, 30 mg/kg p.o., day after the third administration): disappeared by the following day | effect on streptozocin-induced static allodynia [2, 4]: had no effect | effect on streptozocin-induced static allodynia ([2]; Biological Example 2, PD 198306 30 mg/kg p.o., after the third administration (3 doses over two days), 30 mg/kg): significantly blocked; also recorded: transient effect | effect on streptozocin-induced static allodynia [2, 5]: had no effect | effect on static allodynia, streptozocin model [2, 7]: had no effect | minimum effective dose (MED), static allodynia, streptozocin model ([2]; intrathecal administration): 3 µg | effect on static allodynia, streptozocin model ([2]; intrathecal administration 30 μg): significantly blocked; also recorded: totally blocked | effect on static allodynia, streptozocin model [2, 8]: dose-dependently blocked
